Experiments:
[1] = mRNA encapsulation efficiency, Quant-iT RiboGreen RNA Assay; assay type: physicochemical
[2] = LNP size and polydispersity, Zetasizer Ultra; assay type: physicochemical
Balb/c mice [3] = assay: EPO levels in plasma, EPO MSD kit (Example 6); assay type: in vivo; conditions: mRNA dose 5 μg FLUC + 5 μg EPO, intravenous
[4] = Apparent LNP pKa, TNS assay; assay type: physicochemical; conditions: LNP with FLUC/EPO 1:1 mRNA
Method: For pKa measurement, a […] assay was conducted according to those described in Sabnis et al., Molecular Therapy, 26(6):1509-19), which is incorporated herein by reference in its entirety. Briefly, 20 buffers (10 mM sodium phosphate, 10 mM sodium borate, 10 mM sodium citrate, and 150 mM sodium chloride, in distilled Water) of unique pH values ranging from 3.0-12.0 were prepared using 1M sodium hydroxide and 1M hydrochloric acid. 3.25 μL of a LNP composition (0.04 mg/mL mRNA, in PBS) was incubated with 2 μL of TNS reagent (0.3 mM, in DMSO) and 90 μL of buffer for each pH value (described above) in a 96-well black-walled plate. Each pH condition was performed in triplicate wells. The TNS fluorescence was measured using a Biotek Cytation Plate reader at excitation/emission wavelengths of 321/445 nm. The fluorescence values were then plotted and fit using a 4-parameter sigmoid curve. From the fit, the pH value yielding the half-maximal fluorescence was calculated and reported as the apparent LNP pKa value.

Balb/c mice [5] = assay: In-vivo bioluminescent imaging of LNP compositions (Example 6); conditions: for Bioluminescence (IV) Liver / Bioluminescence (IV) Lung / Bioluminescence (IV) Spleen / Bioluminescence (IV) Whole Body: 4-6 hours post-dose; for Spleen: Liver Ratio: intravenous
[6] = mRNA dose 5 μg FLUC (CRE/FLUC 1:1 LNP)

% EE ([1]; LNP with CRE/FLUC 1:1 mRNA): 95.6%
% EE ([1]; LNP with EGFP mRNA): 95.4%
% EE ([1]; LNP with FLUC/EPO 1:1 mRNA): 95.9%
PDI ([2]; LNP with CRE/FLUC 1:1 mRNA): 0.11
Size (nm) ([2]; LNP with CRE/FLUC 1:1 mRNA): 79.4 nm
PDI ([2]; LNP with EGFP mRNA): 0.21
Size (nm) ([2]; LNP with EGFP mRNA): 109.3 nm
PDI ([2]; LNP with FLUC/EPO 1:1 mRNA): 0.06
Size (nm) ([2]; LNP with FLUC/EPO 1:1 mRNA): 73.83 nm
pKa (TNS) [4]: 7.57
SMILES: CCCCCC(CCCCC)CCCOC(=O)CCCCCCCN(CCCCCCCC(=O)OCCCC(CCCCC)CCCCC)C(=O)CCN1CCCC1 [Compound 2141, bis(4-pentylnonyl) 8,8′-((3-(pyrrolidin-1-yl)propanoyl)azanediyl)dioctanoate]
hEPO (Balb/c mice [3]): 2.1E + 03
Bioluminescence (IV) Liver (Balb/c mice [5]; [6]): 5.6E + 05
Bioluminescence (IV) Lung (Balb/c mice [5]; [6]): 7.1E + 03
Bioluminescence (IV) Spleen (Balb/c mice [5]; [6]): 2.3E + 05
Bioluminescence (IV) Whole Body (Balb/c mice [5]; [6]): 5.5E + 06
Spleen: Liver Ratio (Balb/c mice [5]; [6]): 0.527
Bioluminescence (IV) Liver (Balb/c mice [5]; mRNA dose 5 μg FLUC + 5 μg EPO): 3.1E + 04
Bioluminescence (IV) Lung (Balb/c mice [5]; mRNA dose 5 μg FLUC + 5 μg EPO): 6.8E + 04
Bioluminescence (IV) Spleen (Balb/c mice [5]; mRNA dose 5 μg FLUC + 5 μg EPO): 1.3E + 05
Bioluminescence (IV) Whole Body (Balb/c mice [5]; mRNA dose 5 μg FLUC + 5 μg EPO): 1.9E + 05
Spleen: Liver Ratio (Balb/c mice [5]; mRNA dose 5 μg FLUC + 5 μg EPO): 6.131

Reference: patent US20250049948A1, “NOVEL IONIZABLE LIPIDS AND LIPID NANOPARTICLES AND METHODS OF USING THE SAME” (Sail Biomedicines, Inc., priority 2021, published 2025)
